The source of these data is patent US20180289678A1, “PHARMACEUTICAL COMPOSITION, PHARMACEUTICAL DOSAGE FORM, PROCESS FOR THEIR PREPARATION, METHODS FOR TREATING AND USES THEREOF” (Boehringer Ingelheim International GmbH, priority 2009, published 2018).

Each structure is given as a SMILES string.

This assay concerns Zucker Diabetic Fatty (ZDF) rats. Nature of the assay: Oral glucose tolerance test in ZDF rats. The settings on record: oral glucose load. In kind it is in vivo, rat. How it is done:
According to a first example an oral glucose tolerance test is performed in overnight fasted 9-weeks old male Zucker Diabetic Fatty (ZDF) rats (ZDF/Crl-Lepr^fa). A pre-dose blood sample is obtained by tail bleed. Blood glucose is measured with a glucometer, and the animals are randomized for blood glucose (n=5/group). Subsequently, the groups receive a single oral administration of either vehicle alone (0.5% aqueous hydroxyethylcellulose containing 3 mM HCl and 0.015% Polysorbat 80) or vehicle containing the SGLT2 inhibitor. The animals receive an oral glucose load (2 g/kg) 30 min after compound administration. Blood glucose is measured in tail blood 30 min, 60 min, 90 min, 120 min, and 180 min after the glucose challenge. Glucose excursion is quantified by calculating the reactive glucose AUC. The data are presented as mean ±SEM. The two-sided unpaired Student t-test is used for statistical comparison of the control group and the active groups.
Compound (I.9) (1-chloro-4-(β-D-glucopyranos-1-yl)-2-[4-((S)-tetrahydrofuran-3-yloxy)-benzyl]-benzene) was orally administered to ZDF rats at doses of 0.3 mg/kg, 3 mg/kg or 30 mg/kg body weight. Compound (I.9) reduced glucose excursion by 15% at 0.3 mg/kg (not significant), by 62% at 3 mg/kg (p<0.001) and by 89% at 30 mg/kg (p<0.001).

Consider `OC[C@H]1O[C@@H](c2ccc(Cl)c(Cc3ccc(O[C@H]4CCOC4)cc3)c2)[C@H](O)[C@@H](O)[C@@H]1O` [Compound (I.9), 1-chloro-4-(β-D-glucopyranos-1-yl)-2-[4-((S)-tetrahydrofuran-3-yloxy)-benzyl]-benzene], for which the “reduced glucose excursion (baseline-corrected glucose AUC)” value is 15% (0.3 mg/kg oral, not significant); 62% (3 mg/kg oral, p<0.001); 89% (30 mg/kg oral, p<0.001).
